# Test results from US11419806B2, “Prebiotic oral care methods using a saccharide” (Colgate-Palmolive Company, priority 2013, dated 2022).
# Key:
# Format in all cases: cell-based
# Actinomyces naeslundii = assay: Phenotype microarray metabolic activity; settings: A naeslundii
# Protocol: (§1) The extent of metabolic activity of the tested bacteria in the presence of the above-mentioned saccharides after 24 hours and 48 hours was investigated through a high throughput phenotype microarray system (PM) for microbial cells (Biolog Inc.). Each PM can contain up to 95 different biochemical compounds (e.g. saccharides) that may act as substrates for bacteria as well as one negative control, not containing the substrates. Microarray plates were used in which the different wells of each plate were pre-loaded (by the manufacturer, Biolog Inc.) with different saccharides to be tested. Each bacterial species was tested using a separate microarray plate. Thus, a single bacterial species was tested with a variety of saccharides on each particular plate. The microarrays are based on redox technology, using cell respiration as a universal reporter. Active cell respiration results in the reduction of a tetrazolium dye and in the formation of a strong color—for example, when using the tetrazolium dye “Biolog Redox Dye Mix D”, the color changes from transparent/colorless to purple when the dye is reduced. The observation of this color change indicates which of the substrates improve the metabolic activity and health of the cells.
# (§2) Each bacterial species was collected from blood agar plates (incubated for 48 hours anaerobically at 37° C.) and transferred to an IF-0 Base inoculation fluid (Biolog Inc.), which is a nutritionally poor medium. The resulting cell suspension was adjusted to a transmittance of 42% (relative to the transmittance of the base inoculation fluid with no bacterial species present) at 492 nm using a BioRad SmartSpec 3000 Photometer (the adjustment being effected by adding either further inoculation fluid or further bacteria until the transmittance of 42% was achieved). A 1:5 dilution of this suspension was prepared by mixing 3 mL of the 42% transmittance cell suspension with 15 mL of an inoculation fluid (which inoculation fluid was formed by mixing 11.6 mL sterile water, 62.5 mL IF-0 base inoculation fluid and 0.9 mL of the tetrazolium dye “Biolog Redox Dye mix D”), resulting in a final cell density which was equal to 85% transmittance using a BioRad SmartSpec 3000 Photometer. For each of the saccharides tested, the microarray plate (obtained from the supplier (Biolog Inc.) with saccharides already present in the relevant wells in powder form) was directly inoculated with 100 μL/well of this 85% transmittance cell suspension.
# (§3) All plates were incubated in an anaerobic atmosphere at 37° C. Color changes were measured spectrophotometrically at 492 nm (Thermo Scientific Multiskan Ascent) at 24 hrs and 48 hrs using the same plate at both time points. […] After 24 hrs and 48 hrs under continuous shaking in a Multiscan microplate reader, the optical density (OD) of the synthetic medium at 24 hours and 48 hours was measured (using the microplate reader) at a wavelength of 492 nm for each combination of bacterium/saccharide, and for each of their respective controls (i.e. which contained the particular bacterium but no saccharide).
# (§4) The experiment was carried out three times for each combination of bacterium with saccharide, with each repeat being carried out on a different day (thus providing three biological replicas). The controls were also carried out three times, as above. The values shown are the average (mean) of the three single values obtained (as detailed above) for each combination of bacterium with saccharide, at 24 hrs and at 48 hrs.
# Actinomyces viscosus = assay: Phenotype microarray metabolic activity; settings: A viscosus
# Protocol: as §1, §2, §3, §4
# [1] = system: Aggregatibacter actinomycetemcomitans; assay: Phenotype microarray metabolic activity; settings: A actinomycetemcomitans
# Protocol: as §1, §2, §3, §4
# Capnocytophaga sputigena = assay: Phenotype microarray metabolic activity; settings: C sputigena
# Protocol: as §1, §2, §3, §4
# Fusobacterium nucleatum = assay: Phenotype microarray metabolic activity; settings: F nucleatum
# Protocol: as §1, §2, §3, §4
# Porphyromonas gingivalis = assay: Phenotype microarray metabolic activity; settings: P gingivalis
# Protocol: as §1, §2, §3, §4
# Prevotella intermedia = assay: Phenotype microarray metabolic activity; settings: P intermedia
# Protocol: as §1, §2, §3, §4
# S sanguinis = assay: Phenotype microarray metabolic activity
# Protocol: as §1, §2, §3, §4
# Streptococcus gordonii = assay: Phenotype microarray metabolic activity; settings: S gordonii
# Protocol: as §1, §2, §3, §4
# Streptococcus mitis = assay: Phenotype microarray metabolic activity; settings: S mitis
# Protocol: as §1, §2, §3, §4
# Streptococcus mutans = assay: Phenotype microarray metabolic activity; settings: S mutans
# Protocol: as §1, §2, §3, §4
# Streptococcus salivarius = assay: Phenotype microarray metabolic activity; settings: S salivarius
# Protocol: as §1, §2, §3, §4
# Streptococcus sobrinus = assay: Phenotype microarray metabolic activity; settings: S sobrinus
# Protocol: as §1, §2, §3, §4
# Tannerella forsythia = assay: Phenotype microarray metabolic activity; settings: T forsythia
# Protocol: as §1, §2, §3, §4
# Veillonella parvula = assay: Phenotype microarray metabolic activity; settings: V parvula
# Protocol: as §1, §2, §3, §4
# [2] = system: beneficial oral bacteria and pathogenic oral bacteria; assay: Microarray screen, overall prebiotic assessment; settings: 48 hrs
# Protocol: Substrates that were able to increase the metabolic activity of at least one of the above beneficial bacteria while not or only minimally increasing the growth of the pathogenic bacteria are considered to be prebiotic substrates.
# as §1, §2, §3, §4
# This value was selected in order to exclude low-stimulating metabolites and avoid false positive results.
structure (smiles),measurement,setting,value
"OC[C@H]1O[C@@](CO)(O[C@H]2O[C@H](CO)[C@@H](O)[C@H](O)[C@H]2O)[C@@H](O[C@H]2O[C@H](CO)[C@@H](O)[C@H](O)[C@H]2O)[C@@H]1O [D-Melezitose, (2R,3R,4S,5S,6R)-2-[[(2S,3S,4R,5R)-4-hydroxy-2,5-bis(hydroxymethyl)-3-[[(2R,3R,4S,5S,6R)-3,4,5-trihydroxy-6-(hydroxymethyl)-2-tetrahydropyranyl]oxy]-2-tetrahydrofuranyl]oxy]-6-(hydroxymethyl)tetrahydropyran-3,4,5-triol]",metabolic activity: OD 492 nm divided by OD of control (control = 1),Actinomyces naeslundii; 24 hrs,1.5398
same,metabolic activity: OD 492 nm divided by OD of control (control = 1),Actinomyces naeslundii; 48 hrs,2.0357
same,metabolic activity: OD 492 nm divided by OD of control (control = 1),Actinomyces viscosus; 24 hrs,1.7502
same,metabolic activity: OD 492 nm divided by OD of control (control = 1),Actinomyces viscosus; 48 hrs,2.9576
same,metabolic activity: OD 492 nm divided by OD of control (control = 1),[1]; 24 hrs,0.8425
same,metabolic activity: OD 492 nm divided by OD of control (control = 1),[1]; 48 hrs,0.7710
same,metabolic activity: OD 492 nm divided by OD of control (control = 1),Capnocytophaga sputigena; 24 hrs,0.5937
same,metabolic activity: OD 492 nm divided by OD of control (control = 1),Capnocytophaga sputigena; 48 hrs,0.9124
same,metabolic activity: OD 492 nm divided by OD of control (control = 1),Fusobacterium nucleatum; 24 hrs,0.9719
same,metabolic activity: OD 492 nm divided by OD of control (control = 1),Fusobacterium nucleatum; 48 hrs,0.8307
same,metabolic activity: OD 492 nm divided by OD of control (control = 1),Porphyromonas gingivalis; 24 hrs,0.7783
same,metabolic activity: OD 492 nm divided by OD of control (control = 1),Porphyromonas gingivalis; 48 hrs,0.7811
same,metabolic activity: OD 492 nm divided by OD of control (control = 1),Prevotella intermedia; 24 hrs,1.0189
same,metabolic activity: OD 492 nm divided by OD of control (control = 1),Prevotella intermedia; 48 hrs,0.9864
same,metabolic activity: OD 492 nm divided by OD of control (control = 1),S sanguinis; 24 hrs,1.0227
same,metabolic activity: OD 492 nm divided by OD of control (control = 1),S sanguinis; 48 hrs,1.0532
same,metabolic activity: OD 492 nm divided by OD of control (control = 1),Streptococcus gordonii; 24 hrs,1.0421
same,metabolic activity: OD 492 nm divided by OD of control (control = 1),Streptococcus gordonii; 48 hrs,0.9733
same,metabolic activity: OD 492 nm divided by OD of control (control = 1),Streptococcus mitis; 24 hrs,1.1736
same,metabolic activity: OD 492 nm divided by OD of control (control = 1),Streptococcus mitis; 48 hrs,1.0570
same,metabolic activity: OD 492 nm divided by OD of control (control = 1),Streptococcus mutans; 24 hrs,1.0420
same,metabolic activity: OD 492 nm divided by OD of control (control = 1),Streptococcus mutans; 48 hrs,0.9402
same,metabolic activity: OD 492 nm divided by OD of control (control = 1),Streptococcus salivarius; 24 hrs,1.0195
same,metabolic activity: OD 492 nm divided by OD of control (control = 1),Streptococcus salivarius; 48 hrs,0.9869
same,metabolic activity: OD 492 nm divided by OD of control (control = 1),Streptococcus sobrinus; 24 hrs,1.1016
same,metabolic activity: OD 492 nm divided by OD of control (control = 1),Streptococcus sobrinus; 48 hrs,1.0504
same,metabolic activity: OD 492 nm divided by OD of control (control = 1),Tannerella forsythia; 24 hrs,1.0374
same,metabolic activity: OD 492 nm divided by OD of control (control = 1),Tannerella forsythia; 48 hrs,0.9912
same,metabolic activity: OD 492 nm divided by OD of control (control = 1),Veillonella parvula; 24 hrs,0.9056
same,metabolic activity: OD 492 nm divided by OD of control (control = 1),Veillonella parvula; 48 hrs,0.7447
same,"prebiotic effects (metabolic activity, threshold value 2)",[2],exhibited prebiotic effects
